How the values were obtained:
[1] = Genistein provided as a nano suspension in accordance with US 2012/0164190 and 2012/0121654; cited from earlier work
[2] = cited from earlier work
[3] = system: uterus, GI tract, esophagus, skin, tumor, lungs; assay: Example 1: post mortem tissue weights and histopathology (safety); format: in vivo, mouse; details: Example 1, 10 weeks dosing 5 d/wk
Method: At the time of euthanasia organs were harvested and wet tissue weights were measured. In addition to the tissues the weight of the remaining tumor was determined so that the tumor weight can be correlated with the calculated tumor volumes.
The various tissues were fixed in formalin, then processed and embedded in paraffin. Hematoxylin and eosin (H&E) staining was done on 5 micron sections from each of the tissues.
Following euthanasia organ weights were collected for the lungs, uterus, and GI tract. In addition, the tumor was resected and weighed. […]
The examined tissues included the lungs, GI tract (esophagus), uterus, tumor, and the skin near the A549 tumor xenograft. […] All tissues were analyzed microscopically following H&E staining. For these analyses 5 tumors, 5 lung samples, and 5 skin samples were analyzed from each experimental group. In addition, three uterus samples and three esophagus samples from each experimental group were analyzed. All tissue samples were prepared, sectioned, and stained with H&E. Tissues were analyzed for gross morphology and H&E sections were evaluated for inflammatory cells, capillary distension, and congestion. A veterinary pathologist scored the severity and distribution of anomalies observed. […]

Compound: O=c1c(-c2ccc(O)cc2)coc2cc(O)cc(O)c12 [Genistein, 5,7-dihydroxy-3-(4-hydroxyphenyl)-chromen-4-one]
- Oral bioavailability [1]: significantly improved oral bioavailability
- Solubility in water [2]: virtually insoluble in water
- Uterus wet weight [3]: did not dramatically affect the wet uterine weights
